PubChem BioAssay (NCI)
Where “and” joins values, the source holds several entries; their conditions need not be identical. Identical values can stand only once.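 These data come from cells grown in 96-well plates and exposed to compound for 48 hours at five concentrations. Here, GI50 denotes the concentration required for 50% inhibition of growth. TGI marks complete inhibition of growth.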

Legend:
Assay in all cases: NCI anticancer screen, dose series, 48 h
[1] = system: OVCAR-5 ovarian
[2] = system: UACC-257 melanoma
[3] = system: COLO 205 colon
[4] = system: HT29 colon
[5] = system: HCC-2998 colon
[6] = system: LOX IMVI melanoma
[7] = system: TK-10 renal
[8] = system: HL-60(TB) leukemia
[9] = system: SK-MEL-2 melanoma
[10] = system: OVCAR-3 ovarian
[11] = system: A549 NSCLC
[12] = system: 786-0 renal
[13] = system: SNB-75 CNS

Row | SMILES | TGI [1] [µM] | TGI [2] [µM] | TGI [3] [µM] | GI50 [4] | TGI [4] [µM] | TGI [5] [µM] | TGI [6] [µM] | TGI [7] [µM] | GI50 [8] | TGI [8] [µM] | TGI [9] [µM] | TGI [10] [µM] | TGI [11] [µM] | TGI [12] [µM] | TGI [13] [µM]
1 | C=C(C(=O)O)[C@@H]1C[C@@H]2O[C@H]1[C@@H](O)[C@@H](C)CCCC(C)=CCC[C@@]2(C)O | > 100 | > 100 | > 100 | 32.4 µM and > 100 µM | > 100 | > 100 | > 100 | > 100 | 10.5 µM and 32.5 µM | > 100 | > 100 | > 100 | > 100 | > 100 | > 100
2 | CCN(CC)CCCNc1ccc2nc(C)n3c4ccc(O)cc4c(=O)c1c23 | 20.2 | 29 | 20.3 |  | 14.2 | 22.6 | 3.71 | 16.4 |  | > 21.1 | 21.3 | 21.6 | 18.7 | 16.8 | 7.69
3 | O=c1cc(CO)oc2c3c(cc(O)c12)OCC(COC1OC(CO)C(O)C(O)C1O)=CC3 (stereo not given) | > 100 | > 100 | > 100 |  | > 100 | > 100 | > 100 | > 100 |  | > 100 | > 100 | > 100 | > 100 | > 100 | > 100
4 | Nc1nc(Cl)c(N)c(NCC2(CO)CC2)n1 | > 100 | > 100 | > 100 |  | > 100 | > 100 | > 100 | > 100 |  | > 100 | > 100 | > 100 | > 100 | > 100 | > 100
5 | CN(C(=O)C12C3C4C5C3C1(C(=O)C13C6C7C8C6C1C8C73)C5C42)C(C)(C)C (stereo not given) | > 50 | > 50 | > 50 |  | > 50 | > 50 | > 29.7 | > 50 |  | > 26.9 | > 50 | > 50 | > 50 | > 50 | > 50
6 | COc1ccc(N=NC(C(=O)c2ccccc2)C(=O)c2ccccc2)cc1 | 87.1 | > 100 | > 100 |  | 74 | 91.1 | 47 | > 100 |  | 32.7 | 61.2 | > 100 | 75 | 61 | 74.8
